Test results reported in paper PMC7259601 (PLoS ONE, 2020).

Experiments:
brain MAO-A = brain MAO-A (Mus musculus, UniProt Q64133); test: in vivo
Protocol: Male CD1 mice (8 weeks of age, 25-30 g) procured from Charles River were housed in the same conditions as in Ex vivo assay of MAO-A inhibition section.
Ex-vivo MAO-A activity was measured essentially as previously described . […] Brain samples were weighed and then thawed and homogenised in 20 volumes of homogenisation buffer after which MAO-A activity was measured. […] Enzyme activity was corrected by subtracting an assay buffer blank and initially expressed in units of nmoles substrate/min. The protein concentration of the homogenates was measured and used to express final enzyme activity in units of nmoles/min/mg protein. All results are expressed as a mean of duplicate determinations. Brains from animals treated acutely were assayed on a different day to those treated for 5 days (chronically).
MAO-A activity was determined using serotonin creatinine sulphate [2-^14C] as outlined above. Raw enzyme activity values (in nmoles substrate/min) were corrected by subtracting an assay buffer blank and were normalized to the total protein concentration (in nmoles/min/mg protein). All results are means of duplicate determinations. Different drug treatments were compared by Oneway-ANOVA with Dunnett analysis.

KDM1A = test: Ex vivo KDM1A target engagement in rat brain and PBMCs; parameters: species or system Sprague-Dawley rats
Protocol: . Native protein extracts of cells or tissues were obtained in presence of 25 nM OG-881 chemoprobe according the protocol described in Mascaró et al..
Luminescent ELISA: for quantification of total amount of KDM1A protein (TOTAL KDM1A), Luminunc Plates Maxisorp (NUNC; #436110) were coated with a monoclonal anti-KDM1A antibody (Abcam; #ab53269) at 2 µg/mL in PBS. For quantification of the fraction not bound to inhibitor (FREE KDM1A), plates were coated with streptavidin (Promega Biotech Ibérica; #Z7041) at 10 µg/mL in PBS. Coating was performed at 4°C O/N. Wells were washed 3 times in PBS, 0.1% Tween-20 and blocked with PBS-BSA 1% (Sigma; #A3059) for 2 hr. A KDM1A calibration curve of full length rKDM1A (Active Motif; #31334) diluted in PBS was included in each plate. Plates were then incubated 1 hr at RT and washed 5 times. […] Plates were centrifuged during 30 sec to 1,500 x g, shaken for 1 min at 100rpm and incubated inside the micropate reader (Infinite 200, Tecan) for 3 min at 25 °C. The relative luminescence units (RLU) readouts were acquired using a 1000 msec integration time and 150 msec settle time.
. […] After raw data processing (robust elimination of outliers according to Grubbs criteria and subtraction of blank signal on technical replicates), the target engagement was calculated as […]

MAO-A = target: T1, MAO-A (Mus musculus, UniProt Q64133); test: L-5-HTP-induced symptoms test; format: in vivo, CD1 mice; conditions: mouse; p.o. gavage, followed by 100 mg/kg L-5-HTP i.p.; read-out: ED50 potentiation of L-5-HTP-induced symptoms
T1 construct: from tissue; host or cells: mouse brain (homogenate ex vivo; living animal in the L-5-HTP test)
T1 sequence (Q64133 1-526): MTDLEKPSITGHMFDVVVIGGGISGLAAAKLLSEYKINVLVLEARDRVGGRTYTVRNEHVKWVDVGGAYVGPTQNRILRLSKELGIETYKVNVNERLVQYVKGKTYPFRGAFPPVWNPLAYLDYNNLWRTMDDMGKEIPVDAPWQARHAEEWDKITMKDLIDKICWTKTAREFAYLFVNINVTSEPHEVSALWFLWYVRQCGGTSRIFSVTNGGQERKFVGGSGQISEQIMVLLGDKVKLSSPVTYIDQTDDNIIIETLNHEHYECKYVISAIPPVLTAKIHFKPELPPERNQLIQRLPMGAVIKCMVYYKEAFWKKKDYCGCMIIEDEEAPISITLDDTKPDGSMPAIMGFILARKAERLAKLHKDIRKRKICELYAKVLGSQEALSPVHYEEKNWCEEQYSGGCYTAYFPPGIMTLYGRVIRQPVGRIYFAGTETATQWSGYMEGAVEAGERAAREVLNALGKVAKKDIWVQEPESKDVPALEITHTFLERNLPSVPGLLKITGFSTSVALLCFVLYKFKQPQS
Protocol: Male C57BL/6 mice (8 weeks of age, 25-30 g) procured from Harlan Interfauna Iberica were housed in the same condition that in MAO-B PEA section. This test was performed essentially as previously described. Test compound was administered p.o. at several dose levels to groups of mice (N = 10/dose) 60 min before an i.p. injection of L-5-HTP (100 mg/kg). This dose of 5-L-HTP produced no effects in control animals. […] Studies were performed in accordance with the institutional guidelines for the care and use of laboratory animals (European Communities Council Directive 86/609/EEC) established by the Ethical Committee for Animal Experimentation at the PRAAL-PCB.
This test was performed essentially as previously described [90](Koe et al., 1983). Test compound was administered p.o. at several dose levels 60 min before an i.p. injection of L-5-HTP. […] One score assigned to each symptom observed per animal, giving a maximal obtainable score of 30 per group of 10 mice.
Behavior was rated as outline above.

[1] = test system: M (non-selective) (antagonist radioligand); test: CEREP Diversity Panel; format: binding; parameters: % inhibition: dose or concentration left out as unconfirmed
Protocol: (§1) […]. MAO-A inhibition at 10 μM was 37%, in line with internal data.

[2] = test system: I2 (antagonist radioligand); test: CEREP Diversity Panel; format: binding; parameters: % inhibition: dose or concentration left out as unconfirmed
Protocol: as §1

SUV39H1 (h) = SUV39H1 (h) (Homo sapiens, UniProt O43463); test: Epigenetic selectivity profile; format: biochemical
Protocol: as §1

HDAC11 (h) = HDAC11 (h) (Homo sapiens, UniProt Q96DB2); test: Epigenetic selectivity profile; format: biochemical
Protocol: as §1

sirtuin 2 (h) = sirtuin 2 (h) (Homo sapiens, UniProt Q8IXJ6); test: Epigenetic selectivity profile; format: biochemical
Protocol: as §1

DOT1L (h) = DOT1L (h) (Homo sapiens, UniProt Q8TEK3); test: Epigenetic selectivity profile; format: biochemical
Protocol: as §1

(h)p300 = (h)p300 (Homo sapiens, UniProt Q09472); test: Epigenetic selectivity profile; format: biochemical
Protocol: as §1

Sequence of SUV39H1 (h) (O43463 whole entry): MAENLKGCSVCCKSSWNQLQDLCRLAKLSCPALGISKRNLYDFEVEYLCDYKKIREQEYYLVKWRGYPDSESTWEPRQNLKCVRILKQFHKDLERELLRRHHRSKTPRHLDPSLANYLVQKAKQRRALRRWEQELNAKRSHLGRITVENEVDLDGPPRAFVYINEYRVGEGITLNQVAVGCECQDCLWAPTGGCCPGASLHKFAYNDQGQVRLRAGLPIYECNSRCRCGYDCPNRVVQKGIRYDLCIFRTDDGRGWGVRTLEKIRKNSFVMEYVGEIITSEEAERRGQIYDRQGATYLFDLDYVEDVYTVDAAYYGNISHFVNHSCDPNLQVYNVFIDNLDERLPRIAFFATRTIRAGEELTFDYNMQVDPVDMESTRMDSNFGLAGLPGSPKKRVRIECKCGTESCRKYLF
Sequence of sirtuin 2 (h) (Q8IXJ6 whole entry): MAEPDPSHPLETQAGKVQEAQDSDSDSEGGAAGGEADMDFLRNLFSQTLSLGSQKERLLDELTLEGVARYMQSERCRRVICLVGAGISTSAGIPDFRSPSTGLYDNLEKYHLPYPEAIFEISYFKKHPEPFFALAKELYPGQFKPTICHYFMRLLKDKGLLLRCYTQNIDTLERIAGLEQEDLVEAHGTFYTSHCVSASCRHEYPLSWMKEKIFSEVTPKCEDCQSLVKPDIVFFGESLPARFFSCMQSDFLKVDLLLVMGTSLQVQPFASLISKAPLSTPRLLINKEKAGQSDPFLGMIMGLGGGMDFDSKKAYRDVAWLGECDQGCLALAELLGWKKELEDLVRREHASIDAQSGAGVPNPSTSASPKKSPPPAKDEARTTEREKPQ
Sequence of (h)p300 (Q09472 whole entry): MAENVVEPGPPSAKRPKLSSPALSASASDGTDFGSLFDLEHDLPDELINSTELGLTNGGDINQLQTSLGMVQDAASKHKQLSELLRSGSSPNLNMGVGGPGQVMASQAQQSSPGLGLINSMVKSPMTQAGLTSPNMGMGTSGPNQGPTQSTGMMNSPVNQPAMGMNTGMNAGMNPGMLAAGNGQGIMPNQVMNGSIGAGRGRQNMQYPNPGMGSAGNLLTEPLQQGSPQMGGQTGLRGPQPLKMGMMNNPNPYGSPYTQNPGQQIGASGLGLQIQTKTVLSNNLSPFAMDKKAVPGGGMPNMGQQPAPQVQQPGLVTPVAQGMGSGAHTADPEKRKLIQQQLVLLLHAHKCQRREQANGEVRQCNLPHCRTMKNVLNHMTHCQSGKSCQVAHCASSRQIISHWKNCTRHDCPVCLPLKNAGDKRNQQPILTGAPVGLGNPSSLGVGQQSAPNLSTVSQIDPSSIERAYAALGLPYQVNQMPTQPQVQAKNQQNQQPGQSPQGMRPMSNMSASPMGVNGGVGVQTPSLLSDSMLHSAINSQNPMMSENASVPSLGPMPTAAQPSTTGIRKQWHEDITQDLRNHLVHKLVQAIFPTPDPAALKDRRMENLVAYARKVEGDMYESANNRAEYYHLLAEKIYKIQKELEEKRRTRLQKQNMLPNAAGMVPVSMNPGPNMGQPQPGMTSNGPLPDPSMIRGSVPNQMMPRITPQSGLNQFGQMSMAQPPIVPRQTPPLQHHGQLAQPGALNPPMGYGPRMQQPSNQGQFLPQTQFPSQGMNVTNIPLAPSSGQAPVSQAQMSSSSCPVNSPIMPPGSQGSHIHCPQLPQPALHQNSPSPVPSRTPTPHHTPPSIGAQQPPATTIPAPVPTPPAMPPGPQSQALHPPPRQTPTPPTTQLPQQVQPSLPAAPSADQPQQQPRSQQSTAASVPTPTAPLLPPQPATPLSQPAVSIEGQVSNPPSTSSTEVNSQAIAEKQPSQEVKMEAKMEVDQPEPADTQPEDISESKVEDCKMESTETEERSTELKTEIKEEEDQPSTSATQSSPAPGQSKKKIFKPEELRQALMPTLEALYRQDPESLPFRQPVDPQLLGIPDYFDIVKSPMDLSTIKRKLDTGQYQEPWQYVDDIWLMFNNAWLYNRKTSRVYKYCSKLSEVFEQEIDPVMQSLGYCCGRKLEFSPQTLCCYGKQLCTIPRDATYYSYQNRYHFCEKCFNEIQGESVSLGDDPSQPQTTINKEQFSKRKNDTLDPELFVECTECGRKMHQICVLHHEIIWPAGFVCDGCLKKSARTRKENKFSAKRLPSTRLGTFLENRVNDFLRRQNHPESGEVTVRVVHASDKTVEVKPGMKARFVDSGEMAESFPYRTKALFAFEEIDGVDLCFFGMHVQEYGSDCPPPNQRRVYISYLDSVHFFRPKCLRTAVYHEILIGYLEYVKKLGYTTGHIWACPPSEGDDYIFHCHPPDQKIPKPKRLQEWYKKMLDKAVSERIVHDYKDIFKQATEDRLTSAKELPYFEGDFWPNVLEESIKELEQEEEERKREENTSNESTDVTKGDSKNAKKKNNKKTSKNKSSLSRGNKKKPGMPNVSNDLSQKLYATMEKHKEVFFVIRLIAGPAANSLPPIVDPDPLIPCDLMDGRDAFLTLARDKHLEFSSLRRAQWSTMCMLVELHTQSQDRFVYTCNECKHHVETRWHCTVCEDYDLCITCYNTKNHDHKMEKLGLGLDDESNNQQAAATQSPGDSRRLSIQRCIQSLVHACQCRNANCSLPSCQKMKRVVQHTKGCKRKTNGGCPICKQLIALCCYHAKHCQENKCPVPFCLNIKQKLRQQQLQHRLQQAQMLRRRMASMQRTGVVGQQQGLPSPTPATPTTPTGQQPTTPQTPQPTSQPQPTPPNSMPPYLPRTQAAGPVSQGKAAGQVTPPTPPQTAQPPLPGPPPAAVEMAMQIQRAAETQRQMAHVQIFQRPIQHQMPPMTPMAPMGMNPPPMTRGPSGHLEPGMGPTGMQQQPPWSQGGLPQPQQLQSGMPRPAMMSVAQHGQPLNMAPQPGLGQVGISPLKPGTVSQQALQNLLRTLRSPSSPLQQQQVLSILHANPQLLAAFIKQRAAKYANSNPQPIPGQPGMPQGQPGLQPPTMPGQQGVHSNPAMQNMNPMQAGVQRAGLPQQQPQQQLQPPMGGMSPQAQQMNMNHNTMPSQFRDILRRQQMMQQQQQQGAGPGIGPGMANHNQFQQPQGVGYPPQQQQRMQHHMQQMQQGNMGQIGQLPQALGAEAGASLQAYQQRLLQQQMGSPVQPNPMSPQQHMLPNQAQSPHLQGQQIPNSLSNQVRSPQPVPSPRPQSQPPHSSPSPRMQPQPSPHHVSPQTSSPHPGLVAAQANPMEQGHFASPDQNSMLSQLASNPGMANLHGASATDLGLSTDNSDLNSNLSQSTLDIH
Sequence of DOT1L (h) (Q8TEK3 whole entry): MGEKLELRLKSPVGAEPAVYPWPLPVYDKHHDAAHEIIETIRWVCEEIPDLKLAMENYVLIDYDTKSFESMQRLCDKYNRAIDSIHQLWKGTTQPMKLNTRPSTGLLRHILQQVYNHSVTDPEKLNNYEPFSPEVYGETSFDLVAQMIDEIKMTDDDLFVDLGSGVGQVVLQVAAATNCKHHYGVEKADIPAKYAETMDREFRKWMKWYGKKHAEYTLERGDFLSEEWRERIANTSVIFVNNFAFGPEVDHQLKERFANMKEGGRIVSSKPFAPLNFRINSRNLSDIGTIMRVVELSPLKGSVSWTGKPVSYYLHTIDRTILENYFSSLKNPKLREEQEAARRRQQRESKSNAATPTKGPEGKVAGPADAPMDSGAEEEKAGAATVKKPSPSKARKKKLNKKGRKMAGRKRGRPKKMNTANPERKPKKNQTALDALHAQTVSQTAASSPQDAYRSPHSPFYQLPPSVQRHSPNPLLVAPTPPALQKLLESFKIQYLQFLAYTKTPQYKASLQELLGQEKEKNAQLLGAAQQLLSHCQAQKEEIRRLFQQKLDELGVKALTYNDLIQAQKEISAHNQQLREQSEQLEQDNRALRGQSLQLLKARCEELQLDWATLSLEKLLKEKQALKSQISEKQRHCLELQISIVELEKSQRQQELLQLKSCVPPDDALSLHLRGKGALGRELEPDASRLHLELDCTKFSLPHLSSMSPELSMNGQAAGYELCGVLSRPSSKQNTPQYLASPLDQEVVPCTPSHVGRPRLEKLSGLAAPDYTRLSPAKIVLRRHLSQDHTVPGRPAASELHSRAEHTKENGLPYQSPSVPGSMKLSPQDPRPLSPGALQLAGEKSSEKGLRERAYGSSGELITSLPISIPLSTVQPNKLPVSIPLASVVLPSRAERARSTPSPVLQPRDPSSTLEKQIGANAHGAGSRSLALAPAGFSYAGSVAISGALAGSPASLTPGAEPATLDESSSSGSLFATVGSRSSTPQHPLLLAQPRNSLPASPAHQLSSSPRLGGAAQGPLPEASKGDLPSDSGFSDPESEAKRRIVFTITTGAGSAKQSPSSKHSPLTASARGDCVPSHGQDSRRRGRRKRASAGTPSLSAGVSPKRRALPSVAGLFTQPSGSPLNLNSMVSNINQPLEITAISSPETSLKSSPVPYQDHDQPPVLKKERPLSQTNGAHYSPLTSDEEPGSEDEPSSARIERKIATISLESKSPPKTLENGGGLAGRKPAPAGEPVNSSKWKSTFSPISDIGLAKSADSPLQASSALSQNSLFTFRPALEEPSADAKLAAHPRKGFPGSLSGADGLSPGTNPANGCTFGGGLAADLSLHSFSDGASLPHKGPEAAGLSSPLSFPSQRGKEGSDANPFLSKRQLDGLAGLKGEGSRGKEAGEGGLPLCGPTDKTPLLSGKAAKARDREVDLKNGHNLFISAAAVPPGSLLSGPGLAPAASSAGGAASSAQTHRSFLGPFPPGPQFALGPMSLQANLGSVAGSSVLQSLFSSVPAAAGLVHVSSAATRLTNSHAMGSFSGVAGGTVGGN
Sequence of HDAC11 (h) (Q96DB2 whole entry): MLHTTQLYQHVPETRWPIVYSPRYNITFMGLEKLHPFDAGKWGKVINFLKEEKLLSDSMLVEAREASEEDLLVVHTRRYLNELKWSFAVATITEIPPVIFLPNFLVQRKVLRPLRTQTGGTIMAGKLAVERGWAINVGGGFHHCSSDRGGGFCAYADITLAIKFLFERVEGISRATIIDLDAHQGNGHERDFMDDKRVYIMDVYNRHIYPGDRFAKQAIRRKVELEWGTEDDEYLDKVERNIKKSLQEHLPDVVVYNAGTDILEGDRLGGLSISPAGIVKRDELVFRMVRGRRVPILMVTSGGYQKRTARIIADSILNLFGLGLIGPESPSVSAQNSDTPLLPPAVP

Nc1nnc(CN[C@@H]2C[C@H]2c2ccc(OCc3ccccc3)cc2)o1 [ORY-2001, vafidemstat]
ex vivo brain MAO-A inhibition, acute setting (brain MAO-A; mice, acute 1 to 100 mg/kg p.o. gavage): only the 100 mg/kg dose led to a significant inhibition
ED50 (brain MAO-A; mouse, po, read-out: ED50 ex vivo brain MAO-A inhibition): ~10 mg/kg
time for brain target engagement levels to return to baseline (KDM1A; S2B Fig): ~ 3 days
time to maximum target engagement (KDM1A; rat PBMCs and brain, days of administration): 5 days
ED50 (MAO-A): 20.5 mg/kg
% inhibition [1]: 1%
muscarinic receptor antagonist (MRA) activity [1]: not an MRA
% inhibition [2]: 71%
I2 imidazoline receptor inhibition of ligand binding ([2]; 10 μM): 71%
inhibition at 10 µM (SUV39H1 (h)): -7%
inhibition at 10 µM (HDAC11 (h)): -2%
inhibition at 10 µM (sirtuin 2 (h)): 5%
inhibition at 10 µM (DOT1L (h)): -1%
inhibition at 10 µM ((h)p300): 0%
